Series [1] can be described thus: Cytotoxicity against rat macrophages by MTS/PMS assay. Type of series: cell-based. Particulars: macrophage; call rule not given here.
In the next series the target is Dipeptidyl peptidase 4 (Homo sapiens, UniProt P27487). The series can be described thus: Inhibition of human recombinant DPP-4 using Gly-pro-p-nitroanilide as substrate assessed as formation of p-nitroaniline after 30 mins by colorimetric assay.
The subject of series [2] is Rattus norvegicus. The series can be described thus: Antidiabetic activity in high-fat-diet and low dose streptozotocin-induced diabetic Wistar rat assessed as blood glucose level at 10 mg/kg, po after 15 days (reference value: 515 mg/dl). It is filed as functional.
The subject of series [3] is Rattus norvegicus. The series is described as follows: Antidiabetic activity in high-fat-diet and low dose streptozotocin-induced diabetic Wistar rat assessed as blood glucose level at 50 mg/kg, po after 15 days (reference value: 515 mg/dl). Type of series: functional.

Chain of Dipeptidyl peptidase 4 (P27487 whole entry): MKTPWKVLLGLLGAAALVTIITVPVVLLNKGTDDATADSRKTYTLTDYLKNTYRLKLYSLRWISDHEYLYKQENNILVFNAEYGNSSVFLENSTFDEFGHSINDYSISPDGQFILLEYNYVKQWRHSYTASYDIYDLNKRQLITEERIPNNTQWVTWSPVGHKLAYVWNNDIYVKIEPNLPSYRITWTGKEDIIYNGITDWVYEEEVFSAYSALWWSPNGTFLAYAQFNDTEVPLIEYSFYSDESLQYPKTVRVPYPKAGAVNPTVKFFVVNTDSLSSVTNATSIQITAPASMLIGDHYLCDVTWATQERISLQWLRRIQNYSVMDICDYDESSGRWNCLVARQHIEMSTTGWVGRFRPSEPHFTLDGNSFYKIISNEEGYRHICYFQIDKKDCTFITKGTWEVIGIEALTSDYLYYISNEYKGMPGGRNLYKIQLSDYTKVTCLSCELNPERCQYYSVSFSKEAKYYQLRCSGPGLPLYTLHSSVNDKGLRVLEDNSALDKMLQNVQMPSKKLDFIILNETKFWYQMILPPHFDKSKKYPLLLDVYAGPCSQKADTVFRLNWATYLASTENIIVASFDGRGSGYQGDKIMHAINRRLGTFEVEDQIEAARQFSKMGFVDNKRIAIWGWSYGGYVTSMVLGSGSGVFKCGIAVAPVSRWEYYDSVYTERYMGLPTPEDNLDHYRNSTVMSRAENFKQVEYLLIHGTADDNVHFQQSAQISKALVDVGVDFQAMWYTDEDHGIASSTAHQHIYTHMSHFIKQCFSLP

On to `COc1ccc(-n2ncc3c(=O)n(-c4ccccn4)c(C)nc32)cc1`, for which the Activity entry in series [1] was “Non-toxic”. For the same compound, the IC50 result on Dipeptidyl peptidase 4 is recorded as “Not Active”.
The like results for `Cc1nc2c(cnn2-c2ccccc2)c(=O)n1-c1ccc(F)cc1F` were, in that order, “Non-toxic” and “Not Active”.
The matching figures for `Cc1nc2c(cnn2-c2ccccc2)c(=O)n1-c1cccc(Cl)c1`: “Non-toxic” and “Not Active”.
Take `COc1ccc(-n2ncc3c(=O)n(-c4ccc(F)cc4)c(C)nc32)cc1`: the Activity result in series [1] is given as “Non-toxic”. Besides, the IC50 result on Dipeptidyl peptidase 4 is recorded as “Not Active”.
Consider `COc1ccc(-n2ncc3c(=O)n(-c4cc(C)ccn4)c(C)nc32)cc1`, for which, in series [1], the Activity result is listed as “Non-toxic”.
In the case of `Cc1nc2c(cnn2-c2ccccc2)c(=O)n1-c1ccccc1`, the Activity result in series [1] is given as “Non-toxic”. In addition, the IC50 entry at Dipeptidyl peptidase 4 is given as “Not Active”.
Regarding `Cc1nc2c(cnn2-c2ccccc2)c(=O)n1-c1ncccn1`, the Activity result in series [1] is on record as “Non-toxic”.
On the same count and under the same terms, under `Cc1nc2c(cnn2-c2ccccc2)c(=O)n1-c1ccccn1` stands “Non-toxic”.
On to `O=C(Nc1ccc(Cl)cc1)c1cnn(-c2ccccc2)c1NC(=O)C(F)(F)F`, for which the Activity result in series [1] is listed as “Non-toxic”. On Dipeptidyl peptidase 4, the IC50 entry was “Not Active”.
As to `CC(=O)Nc1c(C(=O)Nc2nc(-c3ccc(Cl)cc3)cs2)cnn1-c1ccccc1`, in series [1], the Activity result is recorded as “Non-toxic”. At Dipeptidyl peptidase 4, the IC50 result is “Not Active”.
The matching figures for `COc1ccc(-n2ncc3c(=O)n(-c4ccc(Br)cn4)c(C)nc32)cc1`: “Non-toxic” and “Not Active”.
In the case of `COc1ccc(-n2ncc3c(=O)n(-c4ccc([N+](=O)[O-])cn4)c(C)nc32)cc1`, in series [1], the Activity result is “Non-toxic”. Moreover, at Dipeptidyl peptidase 4, the IC50 result is on record as “Not Active”.
The matching figures for `CCOC(=O)c1sc(-n2c(C)nc3c(cnn3-c3ccccc3)c2=O)c(C(=O)OCC)c1C`: “Non-toxic” and “Not Active”.
The like results for `CCc1ccc(-n2c(C)nc3c(cnn3-c3ccccc3)c2=O)cc1` were, in that order, “Non-toxic” and “Not Active”.
For `N[C@@H](CC(=O)N1CCn2c(nnc2C(F)(F)F)C1)Cc1cc(F)c(F)cc1F` [SITAGLIPTIN], the Activity entry in series [1] was “Non-toxic”; in the series with Rattus norvegicus [2], 136.4 mg/dL.
As to `O=C(Nc1ccc(F)cc1)c1cnn(-c2ccccc2)c1NC(=O)C(F)(F)F`, the results for the Activity entry (in series [1]; in the series on Rattus norvegicus [3]) were “Non-toxic” and 193.2 mg/dL, respectively.
With `Cc1nc2c(cnn2-c2ccccc2)c(=O)n1-c1ccc(Br)cn1`, the Activity entry in series [1] is “Non-toxic”.
Consider `CC(=O)Nc1c(C(=O)Nc2ccccn2)cnn1-c1ccccc1`, for which the Activity entry in series [1] was “Non-toxic”. Further, the IC50 result on Dipeptidyl peptidase 4 was “Not Active”.
For `Cc1cc(C)c(-n2c(C)nc3c(cnn3-c3ccccc3)c2=O)c(C)c1`, the Activity entry in series [1] is “Non-toxic”; in the series with Rattus norvegicus [3], 162.6 mg/dL.
For the compound `Cc1nc2c(cnn2-c2ccccc2)c(=O)n1Cc1ccccc1`, in series [1], the Activity result is given as “Non-toxic”. Further, the IC50 entry at Dipeptidyl peptidase 4 is listed as “Not Active”.
`COc1ccc(-n2ncc3c(=O)n(-c4nc(-c5ccc(Cl)cc5)cs4)c(C)nc32)cc1`: the Activity result in series [1] is given as “Non-toxic”.
Take `Cc1nc2c(cnn2-c2ccccc2)c(=O)n1-c1ccc(F)cc1`: the Activity entry in series [1] is listed as “Non-toxic”. The IC50 result at Dipeptidyl peptidase 4 is recorded as “Not Active”.
For `CCOC(=O)c1sc(-n2c(C)nc3c(cnn3-c3ccc(OC)cc3)c2=O)c(C(=O)OCC)c1C`, the Activity result in series [1] is recorded as “Non-toxic”. Besides, the IC50 entry at Dipeptidyl peptidase 4 is “Not Active”.
The like results for `Cc1nc2c(cnn2-c2ccccc2)c(=O)n1-c1ccc([N+](=O)[O-])cn1` were, in that order, “Non-toxic” and “Not Active”.
Regarding `CC(=O)Nc1c(C(=O)Nc2ccc(Br)cn2)cnn1-c1ccccc1`, in series [1], the Activity result is “Non-toxic”. On Dipeptidyl peptidase 4, the IC50 entry is on record as “Not Active”.
Consider `Cc1ccnc(-n2c(C)nc3c(cnn3-c3ccccc3)c2=O)c1`, for which the Activity result in series [1] is “Non-toxic”; with Rattus norvegicus [3] it was 198.5 mg/dL.

These data come from ChEMBL document CHEMBL3616461, “Design, synthesis and biological evaluation of novel pyrazolo-pyrimidinones as DPP-IV inhibitors in diabetes” (Bioorg Med Chem Lett, 2015).
